Laboratory results from patent publication US4791215A, “Derivatives of glutamic acid and aspartic acid” (priority 1984, dated 1988).
Where “and” joins values, the source holds several entries; their conditions need not be identical. Identical values can stand only once.

Key:
[1] = system: activity of analgesic drugs; assay: Hot-plate test, potentiation of analgesic drugs (Experiment 2); type: in vivo, rats
Outline: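 Male rats of about 150 g, not fasted, five per group, were placed on a plate held at 55°±1° C. Licking or jumping latency was recorded before and at 10–90 min after dosing, with a 30 s cut-off. A positive response meant at least a doubling of reaction time, reported as positives/treated.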

[2] = system: CCK-8 induced contraction of guinea pig gall bladder; assay: Anti-CCK-8 activity on gall bladders in situ; type: in vivo; conditions: for percentage inhibition of contracting effect of CCK-8: single experiments
[3] = system: intestinal transit of carbon; assay: Anti-spastic activity, vegetable carbon intestinal transit test; type: in vivo, mice; conditions: Mus musculus, ip; read-out: antispastic activity ED50 (dose reducing intestinal transit of carbon by 50%)
Text: The anti-spastic activity which the present compounds exert on the entire digestive system is also notable. Measured in mice with the vegetable carbon test (rate of transit through the stomach and the intestine), this activity is illustrated in the following table.
claimed administered intraperitoneally in mice. Values
expressed as the ED 50 in mg/kg, that is the dose which
reduces the intestinal transit of carbon by 50%

[4] = system: biliary flow; assay: Biliary flow (choleretic activity); type: in vivo, rat
Outline: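 In urethane-anaesthetised rats with bile duct cannulated, bile collected 1 h before and 2 h after intravenous compound dosing. Samples weighed at 30 minute intervals; 0.5 ml physiological solution given every 30 minutes to prevent dehydration.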

Structure (SMILES): CCCN(CCC)C(=O)C(CCC(=O)O)NC(=O)c1ccc(C(C)C)cc1 (centres unmarked) [Compound C-36]
- TOTAL positives ([1]; ASA 100 + compound 10 mg/kg i.p.): 10 X/30
- positive responses over number treated ([1]; ASA 100 + compound 10 mg/kg i.p., 10'): 1/5
- positive responses over number treated ([1]; ASA 100 + compound 10 mg/kg i.p., 20'): 2/5
- positive responses over number treated ([1]; ASA 100 + compound 10 mg/kg i.p., 30'): 3/5
- positive responses over number treated ([1]; ASA 100 + compound 10 mg/kg i.p., 45'): 2/5
- positive responses over number treated ([1]; ASA 100 + compound 10 mg/kg i.p., 60'): 1/5
- positive responses over number treated ([1]; ASA 100 + compound 10 mg/kg i.p., 90'): 1/5
- TOTAL positives ([1]; ASA 100 + compound 30 mg/kg i.p.): 14 X/30
- positive responses over number treated ([1]; ASA 100 + compound 30 mg/kg i.p., 10'): 1/5
- positive responses over number treated ([1]; ASA 100 + compound 30 mg/kg i.p., 20'): 2/5
- positive responses over number treated ([1]; ASA 100 + compound 30 mg/kg i.p., 30'): 2/5
- positive responses over number treated ([1]; ASA 100 + compound 30 mg/kg i.p., 45'): 3/5
- positive responses over number treated ([1]; ASA 100 + compound 30 mg/kg i.p., 60'): 3/5
- positive responses over number treated ([1]; ASA 100 + compound 30 mg/kg i.p., 90'): 3/5
- TOTAL positives ([1]; ASA 100 + compound 100 mg/kg i.p.): 20 X/30
- positive responses over number treated ([1]; ASA 100 + compound 100 mg/kg i.p., 10'): 3/5
- positive responses over number treated ([1]; ASA 100 + compound 100 mg/kg i.p., 20'): 3/5
- positive responses over number treated ([1]; ASA 100 + compound 100 mg/kg i.p., 30'): 4/5
- positive responses over number treated ([1]; ASA 100 + compound 100 mg/kg i.p., 45'): 4/5
- positive responses over number treated ([1]; ASA 100 + compound 100 mg/kg i.p., 60'): 4/5
- positive responses over number treated ([1]; ASA 100 + compound 100 mg/kg i.p., 90'): 2/5
- TOTAL positives ([1]; methadone 1 + compound 0.3 mg/kg i.p.): 2 X/30
- positive responses over number treated ([1]; methadone 1 + compound 0.3 mg/kg i.p., 10'): 2/5
- positive responses over number treated ([1]; methadone 1 + compound 0.3 mg/kg i.p., 20'): 2/5
- positive responses over number treated ([1]; methadone 1 + compound 0.3 mg/kg i.p., 30'): 3/5
- positive responses over number treated ([1]; methadone 1 + compound 0.3 mg/kg i.p., 45'): 3/5
- positive responses over number treated ([1]; methadone 1 + compound 0.3 mg/kg i.p., 60'): 1/5
- positive responses over number treated ([1]; methadone 1 + compound 0.3 mg/kg i.p., 90'): 1/5
- TOTAL positives ([1]; methadone 1 + compound 1 mg/kg i.p.): 19 X/30
- positive responses over number treated ([1]; methadone 1 + compound 1 mg/kg i.p., 10'): 3/5
- positive responses over number treated ([1]; methadone 1 + compound 1 mg/kg i.p., 20'): 5/5
- positive responses over number treated ([1]; methadone 1 + compound 1 mg/kg i.p., 30'): 4/5
- positive responses over number treated ([1]; methadone 1 + compound 1 mg/kg i.p., 45'): 3/5
- positive responses over number treated ([1]; methadone 1 + compound 1 mg/kg i.p., 60'): 3/5
- positive responses over number treated ([1]; methadone 1 + compound 1 mg/kg i.p., 90'): 1/5
- TOTAL positives ([1]; methadone 1 + compound 3 mg/kg i.p.): 24 X/30
- positive responses over number treated ([1]; methadone 1 + compound 3 mg/kg i.p., 10'): 5/5
- positive responses over number treated ([1]; methadone 1 + compound 3 mg/kg i.p., 20'): 5/5
- positive responses over number treated ([1]; methadone 1 + compound 3 mg/kg i.p., 30'): 3/5
- positive responses over number treated ([1]; methadone 1 + compound 3 mg/kg i.p., 45'): 4/5
- positive responses over number treated ([1]; methadone 1 + compound 3 mg/kg i.p., 60'): 5/5
- positive responses over number treated ([1]; methadone 1 + compound 3 mg/kg i.p., 90'): 2/5
- percentage inhibition of contracting effect of CCK-8 ([2]; 10 mg/kg i.v.): 64.8% and 71.6% and 63.3% and 78.7%
- percentage inhibition of contracting effect of CCK-8 ([2]; 30 mg/kg i.v.): 100%
- ED50 ([2]; Cavia porcellus, iv, CCK-8 10 ng/kg i.v., read-out: ED50 (inhibition of 50% of contracting effect of CCK-8)): 5.1 mg/kg
- ED50 [3]: 208 mg/kg
- % increase in biliary flow with respect to controls ([4]; 12.5 mg/kg i.v.): +15.5%
- % increase in biliary flow with respect to controls ([4]; 25 mg/kg i.v.): +48.5%
- % increase in biliary flow with respect to controls ([4]; 100 mg/kg i.v.): +215.8%
- ED50 ([4]; Rattus norvegicus, iv, average over 2 hours, read-out: ED50 (dose causing 50% increase in biliary flow)): 26.8 mg/kg
